Data taken from patent publication US9650339B2, “Inhibitors of histone demethylases” (Gilead Sciences, Inc., priority 2013, dated 2017).

Key:
KDM6B (JMJD3) = biological target: T1, KDM6B (JMJD3) (Homo sapiens, UniProt O15054); assay: Histone lysine demethylase AlphaLISA assay, KDM6B; assay type: biochemical; conditions: read-out: KDM6B HDME Inhibition IC50
T1 construct: 1043-end; purchased BPS; host or cells: Bac (baculovirus system)
Protocol: Assays are performed analogously to the protocol described by PerkinElmer (Roy et al. PerkinElmer Technical Note: AlphaLISA #12, April 2011)
Enzymes are dissolved in enzyme buffer and incubated for 10 min before being added to 3% DMSO solutions of compounds in enzyme buffer. Incubated for another 10 minutes, before substrate solution is added and the reaction mixture is incubated at room temperature. 10 μL acceptor beads, suspended in Epigenetic Buffer (Perkin Elmer AL008) from stock, are added and the suspension is incubated in the dark at room temperature, before a suspension of streptavidin donor beads (Perkin Elmer 6760002) in Epigenetic Buffer is added. After incubation at room temperature in the dark the plates are read. […]
BK27M3: Biotin-ATKAAR(Kme3)SAPATGGVKKPHRY-NH2? (Caslo, Denmark) […]
Substrate Solution: Substrate, 25 μM L-Asc, and 10 μM α-KG in Buffer A.

KDM6A (UTX) = KDM6A (UTX) (Homo sapiens, UniProt O15550); assay: Histone lysine demethylase AlphaLISA assay, KDM6A; assay type: biochemical; conditions: read-out: KDM6A HDME Inhibition IC50
Procedure, shortened: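 Each enzyme was pre-incubated 10 min in buffer, then 10 min with compound in 3% DMSO solution. The reaction started with biotinylated histone H3 peptide substrate plus 25 μM L-ascorbate and 10 μM α-KG at room temperature. Detection used AlphaLISA acceptor beads, then streptavidin donor beads, in the dark.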

KDM5B = biological target: T2, KDM5B (Homo sapiens, UniProt Q9UGL1); assay: Histone lysine demethylase immunofluorescence assay, U2OS cells transfected with KDM5B; assay type: cell-based; conditions: U2OS cells transfected with pCMVHA KDM5B; mark detected H3K4me2; 20 hours
T2 construct: (a.a. 1-752); host or cells: U2OS
T2 sequence (Q9UGL1 1-752): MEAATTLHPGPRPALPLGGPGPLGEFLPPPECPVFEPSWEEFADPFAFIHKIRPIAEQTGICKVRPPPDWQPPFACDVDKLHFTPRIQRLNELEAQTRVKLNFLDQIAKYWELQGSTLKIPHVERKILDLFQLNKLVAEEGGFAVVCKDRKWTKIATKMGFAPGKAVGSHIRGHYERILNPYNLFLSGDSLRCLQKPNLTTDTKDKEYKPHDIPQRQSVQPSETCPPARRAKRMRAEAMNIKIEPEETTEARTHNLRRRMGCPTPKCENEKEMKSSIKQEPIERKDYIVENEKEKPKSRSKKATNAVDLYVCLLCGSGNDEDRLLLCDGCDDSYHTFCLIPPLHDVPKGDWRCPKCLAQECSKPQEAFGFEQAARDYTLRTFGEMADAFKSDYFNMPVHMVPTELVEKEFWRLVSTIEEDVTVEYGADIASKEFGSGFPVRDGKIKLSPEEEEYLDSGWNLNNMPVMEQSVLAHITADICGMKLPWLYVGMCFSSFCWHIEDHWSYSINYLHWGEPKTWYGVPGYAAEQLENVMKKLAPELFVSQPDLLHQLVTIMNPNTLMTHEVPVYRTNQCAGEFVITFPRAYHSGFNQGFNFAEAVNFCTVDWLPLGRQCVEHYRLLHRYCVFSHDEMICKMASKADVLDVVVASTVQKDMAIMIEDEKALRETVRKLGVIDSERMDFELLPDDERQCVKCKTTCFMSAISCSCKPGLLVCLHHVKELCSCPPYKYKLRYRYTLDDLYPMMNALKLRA
Protocol: (§1) U2OS cells were seeded 24 hours before transfection. Transfection was performed with Fugene HD transfection reagent as recommended by the manufacturer. 6 hours after transfection, the cells were harvested and seeded into multi well plates into media containing compound. The media used was DMEM containing 10% FBS and pen/strep. 20 hours after incubation of cells with compounds, the cells were washed in PBS, harvested by fixation with formaldehyde 4% aqueous solution, and washed in PBS. Subsequently, the cells were permeabilized in PBS with 0.2% Triton X-100 for. Blocking was performed in PBS with 0.2% Triton X-100 and 5% FBS. The cells were incubated with primary antibodies in blocking solution over night at 4° C. The primary antibodies used in the assays were HA.11 (Covance, MMS-101P) and the antibody detecting the mark specified in the table below. After incubation with primary antibodies, the cells were washed with PBS, incubated with secondary antibodies (Alexa fluor 594 goat anti rabbit IgG, Invitrogen, A11012; Alexa flour 488 donkey anti mouse IgG, Invitrogen, A21202) and Hoechst, (Sigma, 33342) in blocking solution, and washed again with PBS. Finally, PBS was added and high throughput imaging and analysis were performed by an IN Cell Analyzer 1000 (GE Healthcare). The robot software analyzed individual cells and divided these into HA+ (transfected cells) and HA− (non-transfected cells). The IC50 values were based on an average measure of the staining of the mark specified in the table below in the transfected cells.

KDM4C = biological target: T3, KDM4C (Homo sapiens, UniProt Q9H3R0); assay: Histone lysine demethylase immunofluorescence assay, U2OS cells transfected with KDM4C; assay type: cell-based; conditions: U2OS cells transfected with pCMVHA KDM4C; mark detected H3K9me3; 20 hours
T3 construct: Full length; host or cells: U2OS
T3 sequence (Q9H3R0 1-1056): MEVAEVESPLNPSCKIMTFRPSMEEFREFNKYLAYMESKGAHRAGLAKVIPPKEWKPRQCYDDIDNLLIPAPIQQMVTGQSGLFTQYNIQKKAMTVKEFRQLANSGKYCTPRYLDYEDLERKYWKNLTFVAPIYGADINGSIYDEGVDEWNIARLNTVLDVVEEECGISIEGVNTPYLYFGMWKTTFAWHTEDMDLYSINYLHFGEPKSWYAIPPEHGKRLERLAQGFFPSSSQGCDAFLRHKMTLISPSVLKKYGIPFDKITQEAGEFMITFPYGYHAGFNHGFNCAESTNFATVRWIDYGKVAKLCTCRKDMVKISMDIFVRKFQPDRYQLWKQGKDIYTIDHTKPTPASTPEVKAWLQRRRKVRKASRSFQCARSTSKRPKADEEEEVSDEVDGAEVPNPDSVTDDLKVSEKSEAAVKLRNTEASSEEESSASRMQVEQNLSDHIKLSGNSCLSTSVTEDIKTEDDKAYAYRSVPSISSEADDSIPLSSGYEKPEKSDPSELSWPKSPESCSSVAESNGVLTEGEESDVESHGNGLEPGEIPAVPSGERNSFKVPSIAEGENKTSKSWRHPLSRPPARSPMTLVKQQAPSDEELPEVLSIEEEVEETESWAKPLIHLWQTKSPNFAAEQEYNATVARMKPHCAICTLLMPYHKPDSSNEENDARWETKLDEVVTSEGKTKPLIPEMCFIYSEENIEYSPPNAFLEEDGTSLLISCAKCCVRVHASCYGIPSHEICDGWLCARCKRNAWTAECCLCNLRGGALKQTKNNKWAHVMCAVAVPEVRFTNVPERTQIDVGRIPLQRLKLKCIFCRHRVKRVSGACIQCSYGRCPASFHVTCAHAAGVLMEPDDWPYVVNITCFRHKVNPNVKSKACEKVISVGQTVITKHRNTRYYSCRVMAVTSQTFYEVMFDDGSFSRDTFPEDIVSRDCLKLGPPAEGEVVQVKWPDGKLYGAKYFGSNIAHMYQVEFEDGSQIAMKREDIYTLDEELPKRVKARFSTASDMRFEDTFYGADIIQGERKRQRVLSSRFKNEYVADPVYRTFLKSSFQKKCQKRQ
Protocol: as §1

Sequence of KDM6A (UTX) (O15550 919-1401): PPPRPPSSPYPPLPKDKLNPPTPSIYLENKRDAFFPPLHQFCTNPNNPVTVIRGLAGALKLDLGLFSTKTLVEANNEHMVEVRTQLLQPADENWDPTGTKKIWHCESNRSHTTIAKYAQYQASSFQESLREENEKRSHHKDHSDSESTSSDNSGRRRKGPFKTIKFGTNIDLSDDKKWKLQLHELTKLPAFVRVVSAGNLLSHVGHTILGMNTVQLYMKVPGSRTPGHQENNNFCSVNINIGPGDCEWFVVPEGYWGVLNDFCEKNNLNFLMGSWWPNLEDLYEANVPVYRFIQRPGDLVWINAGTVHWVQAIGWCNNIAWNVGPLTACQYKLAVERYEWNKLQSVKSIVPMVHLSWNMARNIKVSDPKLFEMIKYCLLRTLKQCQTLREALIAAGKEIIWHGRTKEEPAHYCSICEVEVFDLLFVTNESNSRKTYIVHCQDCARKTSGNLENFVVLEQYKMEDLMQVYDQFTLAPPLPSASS
T1 sequence (O15054 1043-1682 isoform O15054-1 limits assumed): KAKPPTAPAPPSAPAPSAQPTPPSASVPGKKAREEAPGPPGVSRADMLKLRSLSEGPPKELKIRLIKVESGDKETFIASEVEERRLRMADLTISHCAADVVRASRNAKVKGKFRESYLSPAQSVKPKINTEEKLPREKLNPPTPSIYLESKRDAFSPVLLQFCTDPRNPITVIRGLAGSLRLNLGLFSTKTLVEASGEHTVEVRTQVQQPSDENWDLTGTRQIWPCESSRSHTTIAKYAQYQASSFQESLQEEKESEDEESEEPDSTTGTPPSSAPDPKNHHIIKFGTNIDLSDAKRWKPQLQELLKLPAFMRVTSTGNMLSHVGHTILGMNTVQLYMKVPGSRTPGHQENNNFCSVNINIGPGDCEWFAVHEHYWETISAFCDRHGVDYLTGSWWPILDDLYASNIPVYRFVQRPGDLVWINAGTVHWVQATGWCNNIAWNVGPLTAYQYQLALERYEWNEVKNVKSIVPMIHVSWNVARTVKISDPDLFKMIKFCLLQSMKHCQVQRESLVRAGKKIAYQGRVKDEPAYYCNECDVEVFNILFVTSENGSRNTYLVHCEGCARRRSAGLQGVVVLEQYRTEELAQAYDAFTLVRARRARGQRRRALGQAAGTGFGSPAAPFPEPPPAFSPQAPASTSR

| SMILES | IC50 (KDM6B (JMJD3)) [nM] | IC50 (KDM6A (UTX)) [nM] | IC50 (KDM5B) [nM] | IC50 (KDM4C) [nM] |
| --- | --- | --- | --- | --- |
| CCN(CC)CCCCNCc1cc(CNC(=O)C(F)(F)F)ccn1 [Compound 1, N-{[2-({[4-(diethylamino)butyl]-amino}methyl)pyridin-4-yl]methyl}-2,2,2-trifluoroacetamide] | > 2500 | > 2500 | < 250 | 250 to 2500 |
| CN(C)CCCNCc1cc(CN)ccn1 [Compound 3, [2-({[3-(dimethylamino)propyl]-amino}methyl)pyridin-4-yl]methanamine] | > 2500 | > 2500 | < 250 | > 2500 |
| CCN(CC)CCCCNCc1cc(CN)ccn1 [Compound 5, [2-({[4-(diethylamino)butyl]-amino}methyl)pyridin-4-yl]methanamine] | > 2500 | > 2500 | < 250 | 250 to 2500 |
| CCN(CC)CCCCN(Cc1cc(CNC(=O)C(F)(F)F)ccn1)C(=O)C(F)(F)F [Compound 6, N-[4-(diethylamino)butyl]-- 2,2,2-trifluoro-N-({4-[(trifluoroacetamido)-methyl]pyridin-2-yl}methyl)acetamide] | > 2500 | > 2500 | < 250 | > 2500 |
| NCc1ccnc(CNCCCCN2CCC2)c1 [Compound 7, [2-({[4-(azetidin-1-yl)butyl]amino}methyl)-pyridin-4-yl]-methanamine] | > 2500 | > 2500 | < 250 | > 2500 |
| COc1ccccc1CN1CCC(NC(=O)CNCc2cc(CN)ccn2)CC1 [Compound 9, 2-({[4-(aminomethyl)pyridin-2-yl]methyl}amino)-N-{1-[(2-methoxyphenyl)methyl]-piperidin-4-yl}acetamide] | > 2500 | > 2500 | 250 to 2500 | > 2500 |
| CC1CCCCN1CCCNCc1cc(CNC2CC2)ccn1 (centres unmarked) [Compound 11, N-{[2-({[3-(2-methylpiperidin-1-yl)propyl]amino}methyl)-pyridin-4-yl]methyl}-cyclopropanamine] | > 2500 | > 2500 | > 2500 | > 2500 |
| CCCNCc1cc(CNC2CC2)ccn1 [Compound 12, N-({2-[(propylamino)methyl]-pyridin-4-yl}methyl)-cyclopropanamine] | > 2500 | > 2500 | > 2500 | > 2500 |
| CN(C)CCNCc1ccnc(CNCC(=O)N(C)C)c1 [Compound 15, 2-({[4-({[2-(dimethylamino)ethyl]-amino}methyl)pyridin-2-yl]methyl}amino)-N,N-dimethylacetamide] | > 2500 | > 2500 | 250 to 2500 | > 2500 |

Next, values leading:

| IC50 (KDM6B (JMJD3)) [nM] | IC50 (KDM6A (UTX)) [nM] | IC50 (KDM5B) [nM] | IC50 (KDM4C) [nM] | SMILES |
| --- | --- | --- | --- | --- |
| > 2500 | > 2500 | < 250 | 250 to 2500 | CCN(CCN(C)C)C(=O)CNCc1cc(CN)ccn1 [Compound 4, 2-({[4-(aminomethyl)pyridin-2-yl]methyl}amino)-N-[2-(dimethylamino)ethyl]-N-ethylacetamide] |
| > 2500 | > 2500 | < 250 | 250 to 2500 | CN(C)CCCCCNCc1cc(CN)ccn1 [Compound 8, [2-({[5-(dimethylamino)pentyl]-amino}methyl)pyridin-4-yl]methanamine] |
| > 2500 | > 2500 | > 2500 | > 2500 | CN(C)CCCCNCc1cc(CNC2CC2)ccn1 [Compound 10, N-{[2-({[4-(dimethylamino)butyl]-amino}methyl)pyridin-4-yl]methyl}-cyclopropanamine] |
| > 2500 | > 2500 | 250 to 2500 | 250 to 2500 | CN(C)C(=O)CNCc1cc(CNCC#N)ccn1 [Compound 13, 2-{[(4-{[(cyanomethyl)amino]-methyl}pyridin-2-yl)methyl]amino}-N,N-dimethylacetamide] |
| > 2500 | > 2500 | > 2500 | > 2500 | CN(C)C(=O)CNCc1cc(CNCCF)ccn1 [Compound 14, 2-{[(4-{[(2-fluoroethyl)amino]-methyl}pyridin-2-yl)methyl]amino}-N,N-dimethylacetamide] |
